Experimental findings from patent US20260174875A1 (Novo Nordisk A/S, priority 2023, published 2026) are described below.

In data set [1] the target is T1, human GLP-1 receptor (hGLP-1R) (Homo sapiens, UniProt P43220).
T1 construct: expressed in transfected cells
The data set is described as follows: GLP-1 receptor assay, method A (CRE-luciferase reporter, BHK cells). It is filed as cell-based. Summed up: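 Read-out: steadylite Plus luminescence after 30 min shaking at room temperature in the dark. hGLP-1R BHK CRE-Luc cells were stimulated for 3 h at 37° C, 5% CO2. Runs were done in the absence and presence of 1% (w/v) HSA.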

Data set [2] addresses T2, human GIP receptor (hGIPR) (Homo sapiens, UniProt P48546).
T2 construct: expressed in transfected cells
T2 sequence (P48546 22-466): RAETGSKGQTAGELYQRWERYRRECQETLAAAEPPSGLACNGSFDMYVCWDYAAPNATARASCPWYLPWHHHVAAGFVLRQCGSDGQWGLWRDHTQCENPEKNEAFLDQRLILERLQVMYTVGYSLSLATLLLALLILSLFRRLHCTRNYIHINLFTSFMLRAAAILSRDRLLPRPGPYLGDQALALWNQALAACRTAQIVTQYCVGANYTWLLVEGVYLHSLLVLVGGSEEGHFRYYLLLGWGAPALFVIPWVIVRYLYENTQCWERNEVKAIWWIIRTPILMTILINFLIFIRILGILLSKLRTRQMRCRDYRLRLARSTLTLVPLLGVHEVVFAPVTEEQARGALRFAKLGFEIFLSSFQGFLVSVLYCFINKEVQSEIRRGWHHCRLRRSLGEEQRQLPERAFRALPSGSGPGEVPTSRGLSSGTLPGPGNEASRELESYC
The data set is described as follows: GIP receptor assay, method A (CRE-luciferase reporter, BHK cells). The class given is cell-based. The gist of the method:
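Receptor activation was read as luciferase luminescence in hGIPR-expressing BHK CRE-Luc cells after 3 h compound exposure at 37 °C. Titrations (10-fold, 7 points, duplicate) ran in buffer containing 1% ovalbumin, with 1% HSA final or without; EC50 in pM fitted by four-parameter logistic model, Hill slope shared.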
Background: A reporter such as luciferase makes a cellular process visible.

Data set [3] deals with T3, human amylin receptor (hAMYR3) (Homo sapiens, UniProt O60896+P30988).
T3 construct: host or cells: BHK cells (Hollex-1 line expressing hCTR(a) and CRE-Luc), further transfected with human RAMP3
The data set can be described thus: Amylin receptor assay, method A (CRE-luciferase reporter, BHK cells). It is filed as cell-based.

The nature of data set [4]: Chemical stability assessment in formulation (UPLC-UV-MS purity loss at 37° C.). It is filed as physicochemical. As to conditions: 8 mM phosphate buffer pH 7.4, 1 mg/mL, 2 weeks. The gist of the method: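 Degradation tracked by UPLC-UV-MS (formic acid/acetonitrile gradient) on samples drawn over 2 weeks at 37° C. Solutions were made at a 1 mg/mL target in 8 mM phosphate, pH 7.4, kept in sealed vials and frozen after sampling.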

[5] abbreviates: hGLP-1R Potency, 1% HSA, EC50, method A, in the presence of 1% HSA.
Where [6] appears, read: method A, absence of HSA, read-out: hGLP-1R Potency, no HSA, EC50.
The mark [7] stands for this setting: hGIPR Potency, 1% HSA, EC50, method A, in the presence of 1% HSA.
The mark [8] stands for this setting: method A, absence of HSA, read-out: hGIPR Potency, no HSA, EC50.
[9] abbreviates: hAMYR3 Potency, 1% HSA, EC50, method A, in the presence of 1% HSA.
Setting [10] is: method A, absence of HSA, read-out: hAMYR3 Potency, no HSA, EC50.

Where two headings read alike, the source gives them in different places. Numbered stars: 1 amine (or outer) side, 2 acyl side, 3 side chain; on linkers, the order of the positions; unused ones are H or OH. Square brackets hold non-standard residues; d marks the D form. Side chains are listed from the residue outwards. * marks the point of attachment. C18 diacid = O=C(O)CCCCCCCCCCCCCCCCC(=O)*; γGlu = O=C(O)[C@H](CCC(=O)[*:2])N[*:1]; AEEA = NCCOCCOCC(=O)O; Aib = CC(C)(N)C(=O)O

T1 sequence (P43220 24-463): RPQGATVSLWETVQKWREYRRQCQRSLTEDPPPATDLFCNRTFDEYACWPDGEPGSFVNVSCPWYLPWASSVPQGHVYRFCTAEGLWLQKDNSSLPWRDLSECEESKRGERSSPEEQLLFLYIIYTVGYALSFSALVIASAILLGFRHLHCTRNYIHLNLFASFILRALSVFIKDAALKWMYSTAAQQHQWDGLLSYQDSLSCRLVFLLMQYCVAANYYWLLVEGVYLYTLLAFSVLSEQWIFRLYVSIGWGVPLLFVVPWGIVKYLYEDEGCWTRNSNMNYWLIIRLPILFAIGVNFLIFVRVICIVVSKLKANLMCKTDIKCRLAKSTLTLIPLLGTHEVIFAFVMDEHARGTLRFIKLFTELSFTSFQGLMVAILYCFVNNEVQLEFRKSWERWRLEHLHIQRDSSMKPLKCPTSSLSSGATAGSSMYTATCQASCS
T3 sequence (P30988 25-474): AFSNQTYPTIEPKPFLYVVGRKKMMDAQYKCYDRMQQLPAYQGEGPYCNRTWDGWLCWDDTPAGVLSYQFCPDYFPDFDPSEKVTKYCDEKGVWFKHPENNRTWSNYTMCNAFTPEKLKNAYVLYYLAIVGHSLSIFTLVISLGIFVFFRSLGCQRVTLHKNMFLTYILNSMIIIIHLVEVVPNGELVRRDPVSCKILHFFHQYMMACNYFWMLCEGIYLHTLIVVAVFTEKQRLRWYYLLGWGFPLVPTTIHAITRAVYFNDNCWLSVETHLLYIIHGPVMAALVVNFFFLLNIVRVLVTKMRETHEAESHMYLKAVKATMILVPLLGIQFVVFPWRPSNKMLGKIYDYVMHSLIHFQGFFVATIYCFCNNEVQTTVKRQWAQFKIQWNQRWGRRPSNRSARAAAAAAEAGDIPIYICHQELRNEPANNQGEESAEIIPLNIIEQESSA
T3 sequence (O60896 24-148): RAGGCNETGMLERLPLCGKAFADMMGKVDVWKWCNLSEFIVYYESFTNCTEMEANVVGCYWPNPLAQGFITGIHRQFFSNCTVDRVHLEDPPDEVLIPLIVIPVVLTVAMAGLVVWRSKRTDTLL

Take “H[Aib]HGTFTSDYSILLEEQAAREFIEWLLAGGPSK([AEEA-AEEA-γGlu-C18 diacid])GEASQLSTAALGRLSAELHGLATLPRTETGSGSP-NH2 [Compound 65]”: the EC50 (commonly the midpoint of the concentration-response curve) in data set [1] (setting [5]) is 100 pM; in data set [1] (setting [6]), 4.86 pM; in data set [2] (setting [7]) it was 118 pM; in data set [2] (setting [8]) it was 1.89 pM; in data set [3] (setting [9]) it was 127 pM; in data set [3] (setting [10]) it was 2.84 pM. Besides, the “Purity loss per week at 37° C.” value in data set [4] stood at 2.1%.

In the case of “H[Aib]HGTFTSDYSILLEEQAAREFIEWLLAGGPSSGEASHLSTAQTQRLSAELHRLATLPK([AEEA-AEEA-γGlu-C18 diacid])TETGSGSP-NH2 [Compound 84]”, the EC50 in data set [1] (setting [5]) was 25.9 pM; in data set [1] (setting [6]), 3.31 pM; in data set [2] (setting [7]), 11.6 pM; in data set [2] (setting [8]) it was 3 pM; in data set [3] (setting [9]) it was 175 pM; in data set [3] (setting [10]), 4.41 pM. In addition, the “Purity loss per week at 37° C.” value in data set [4] worked out at 2.9%.

Turning to “H[Aib]HGTFTSDYSILLEEQAAREFIEWLLAGGPSSGEASHLSTAQTQRLSAELHRLK([AEEA-AEEA-γGlu-C18 diacid])TLPRTETGSGSP-NH2 [Compound 83]”, the EC50 in data set [1] (setting [5]) came out at 9.89 pM; in data set [1] (setting [6]), 2.3 pM; in data set [2] (setting [7]), 13.6 pM; in data set [2] (setting [8]), 2.92 pM; in data set [3] (setting [9]) it was 45.7 pM; in data set [3] (setting [10]), 2.9 pM. The “Purity loss per week at 37° C.” value in data set [4] is on record as 2.3%.

Regarding “H[Aib]HGTFTSDYSILLEEQAAREFIEWLLAGGPSK([AEEA-AEEA-γGlu-C18 diacid])GEASQLSTAALGRLSAELHRLATLPRTETGSGSP-NH2 [Compound 73]”, the EC50 came out at 54.1 pM in data set [1] (setting [5]); 4.55 pM in data set [1] (setting [6]); 96.5 pM in data set [2] (setting [7]); 4.98 pM in data set [2] (setting [8]); 61.5 pM in data set [3] (setting [9]); 1.99 pM in data set [3] (setting [10]). Further, the “Purity loss per week at 37° C.” value in data set [4] was 2.8%.

For the compound “H[Aib]HGTFTSDYSILLEEQAAREFIEWLLAGGPSK([AEEA-AEEA-γGlu-C18 diacid])GAGQAPGQAPGASHLSTAQTQRLSAELHELATLPRTETGSGSP-NH2 [Compound 47]”, the half-maximal effective concentration (EC50) came to 67.5 pM in data set [1] (setting [5]); 3.15 pM in data set [1] (setting [6]); 162 pM in data set [2] (setting [7]); 2.02 pM in data set [2] (setting [8]); 55.8 pM in data set [3] (setting [9]); 2.57 pM in data set [3] (setting [10]). In addition, in data set [4], the “Purity loss per week at 37° C.” value worked out at 2.6%.

Regarding “H[Aib]HGTFTSDYSILLEEQAAREFIEWLLAGGPSSGEASHLSTAQTQRLSAELHK([AEEA-AEEA-γGlu-C18 diacid])LATLPRTETGSGAP-NH2 [Compound 85]”, the EC50 in data set [1] (setting [5]) turned out to be 30.3 pM; in data set [1] (setting [6]), 3.52 pM; in data set [2] (setting [7]), 14.6 pM; in data set [2] (setting [8]) it was 2.71 pM; in data set [3] (setting [9]) it was 250 pM; in data set [3] (setting [10]) it was 4.4 pM. Also, in data set [4], the “Purity loss per week at 37° C.” value was 2.0%.

Consider “H[Aib]HGTFTSDYSILLEEQAAREFIEWLLAGGPSSGAGQAPGQAPGASHLSTAQTQRLSAELHRLATLPK([AEEA-AEEA-γGlu-C18 diacid])TETGSGSP-NH2 [Compound 92]”, for which the EC50 in data set [1] (setting [5]) was 13.4 pM; in data set [1] (setting [6]) it was 2.55 pM; in data set [2] (setting [7]) it was 8.53 pM; in data set [2] (setting [8]) it was 3.12 pM; in data set [3] (setting [9]), 75.1 pM; in data set [3] (setting [10]), 2.64 pM. The “Purity loss per week at 37° C.” value in data set [4] amounted to 2.8%.

Regarding `CC[C@H](C)[C@H](NC(=O)[C@H](CCC(=O)O)NC(=O)[C@H](CCC(=O)O)NC(=O)[C@H](CC(C)C)NC(=O)[C@H](CC(C)C)NC(=O)[C@H](CCCCNC(=O)COCCOCCNC(=O)COCCOCCNC(=O)CC[C@H](NC(=O)CCCCCCCCCCCCCCCCCCC(=O)O)C(=O)O)NC(=O)[C@H](CO)NC(=O)[C@H](Cc1ccc(O)cc1)NC(=O)[C@H](CC(=O)O)NC(=O)[C@H](CO)NC(=O)[C@@H](NC(=O)[C@H](Cc1ccccc1)NC(=O)[C@@H](NC(=O)CNC(=O)[C@H](CCC(=O)O)NC(=O)C(C)(C)NC(=O)[C@@H](N)Cc1ccc(O)cc1)[C@@H](C)O)[C@@H](C)O)C(=O)N[C@@H](C)C(=O)N[C@@H](C)C(=O)N[C@@H](CCCNC(=N)N)C(=O)N[C@@H](CCC(=O)O)C(=O)N[C@@H](Cc1ccccc1)C(=O)N[C@H](C(=O)N[C@@H](CCC(=O)O)C(=O)N[C@@H](Cc1c[nH]c2ccccc12)C(=O)N[C@@H](CC(C)C)C(=O)N[C@@H](CC(C)C)C(=O)N[C@@H](C)C(=O)NCC(=O)NCC(=O)N1CCC[C@H]1C(=O)N[C@@H](CO)C(=O)N[C@@H](CO)C(=O)NCC(=O)N[C@@H](C)C(=O)NCC(=O)N[C@@H](CCC(N)=O)C(=O)N[C@@H](C)C(=O)N1CCC[C@H]1C(=O)NCC(=O)N[C@@H](CCC(=O)O)C(=O)N[C@@H](C)C(=O)N1CCC[C@H]1C(=O)NCC(=O)N[C@@H](C)C(=O)N[C@@H](CO)C(=O)N[C@@H](CCC(=O)O)C(=O)N[C@@H](CC(C)C)C(=O)N[C@@H](CO)C(=O)N[C@H](C(=O)N[C@@H](C)C(=O)N[C@@H](C)C(=O)N[C@@H](CC(C)C)C(=O)NCC(=O)N[C@@H](CCCNC(=N)N)C(=O)N[C@@H](CC(C)C)C(=O)N[C@@H](CO)C(=O)N[C@@H](C)C(=O)N[C@@H](CCC(=O)O)C(=O)N[C@@H](CC(C)C)C(=O)N[C@@H](Cc1c[nH]cn1)C(=O)N[C@@H](CCC(N)=O)C(=O)N[C@@H](CC(C)C)C(=O)N[C@@H](C)C(=O)N[C@H](C(=O)N[C@@H](CCC(=O)O)C(=O)N1CCC[C@H]1C(=O)N[C@@H](CCCNC(=N)N)C(=O)N[C@H](C(=O)N[C@@H](CCC(=O)O)C(=O)N[C@H](C(=O)NCC(=O)N[C@@H](CO)C(=O)NCC(=O)N[C@@H](CO)C(=O)N1CCC[C@H]1C(N)=O)[C@@H](C)O)[C@@H](C)O)[C@@H](C)O)[C@@H](C)O)[C@@H](C)CC` [Compound 172], the “Purity loss per week at 37° C.” value in data set [4] came to 0.9%.

In the case of `CC[C@H](C)[C@H](NC(=O)[C@H](CCC(=O)O)NC(=O)[C@H](CCC(=O)O)NC(=O)[C@H](CC(C)C)NC(=O)[C@H](CC(C)C)NC(=O)[C@@H](NC(=O)[C@H](CO)NC(=O)[C@H](Cc1ccc(O)cc1)NC(=O)[C@H](CC(=O)O)NC(=O)[C@H](CO)NC(=O)[C@@H](NC(=O)[C@H](Cc1ccccc1)NC(=O)[C@@H](NC(=O)CNC(=O)[C@H](CCC(=O)O)NC(=O)C(C)(C)NC(=O)[C@@H](N)Cc1ccc(O)cc1)[C@@H](C)O)[C@@H](C)O)[C@@H](C)CC)C(=O)N[C@@H](C)C(=O)N[C@@H](C)C(=O)N[C@@H](CCCNC(=N)N)C(=O)N[C@@H](CCC(=O)O)C(=O)N[C@@H](Cc1ccccc1)C(=O)N[C@H](C(=O)N[C@@H](CCC(=O)O)C(=O)N[C@@H](Cc1c[nH]c2ccccc12)C(=O)N[C@@H](CC(C)C)C(=O)N[C@@H](CC(C)C)C(=O)N[C@@H](C)C(=O)NCC(=O)NCC(=O)N1CCC[C@H]1C(=O)N[C@@H](CO)C(=O)N[C@@H](CO)C(=O)NCC(=O)N[C@@H](C)C(=O)NCC(=O)N[C@@H](C)C(=O)N[C@@H](CO)C(=O)N[C@@H](CCC(N)=O)C(=O)N[C@@H](CC(C)C)C(=O)N[C@@H](CO)C(=O)N[C@H](C(=O)N[C@@H](C)C(=O)N[C@@H](CCC(N)=O)C(=O)N[C@H](C(=O)N[C@@H](CCC(N)=O)C(=O)N[C@@H](CCCNC(=N)N)C(=O)N[C@@H](CC(C)C)C(=O)N[C@@H](CO)C(=O)N[C@@H](C)C(=O)N[C@@H](CCC(=O)O)C(=O)N[C@@H](CC(C)C)C(=O)N[C@@H](Cc1c[nH]cn1)C(=O)N[C@@H](CCCCNC(=O)COCCOCCNC(=O)COCCOCCNC(=O)CC[C@H](NC(=O)CCCCCCCCCCCCCCCCCCC(=O)O)C(=O)O)C(=O)N[C@@H](CC(C)C)C(=O)N[C@@H](C)C(=O)N[C@H](C(=O)N[C@@H](CCC(=O)O)C(=O)N1CCC[C@H]1C(=O)N[C@@H](CCCNC(=N)N)C(=O)N[C@H](C(=O)N[C@@H](CCC(=O)O)C(=O)N[C@H](C(=O)NCC(=O)N[C@@H](CO)C(=O)NCC(=O)N[C@@H](CO)C(=O)N1CCC[C@H]1C(N)=O)[C@@H](C)O)[C@@H](C)O)[C@@H](C)O)[C@@H](C)O)[C@@H](C)O)[C@@H](C)CC` [Compound 180], the “Purity loss per week at 37° C.” value in data set [4] was 0.7%.
